Data from article PMC10988555, “Exploiting Co(III)-Cyclopentadienyl Complexes To Develop Anticancer Agents” (Inorganic Chemistry, 2024).

How the values were obtained:
A2780 cell line [1] = assay: Apoptosis induction, Annexin V/PI flow cytometry; type: cell-based, human; details: A2780, IC50 of each complex, 48 h
Procedure: The induction of apoptosis was evaluated by flow cytometry in the A2780 cell line, through the Alexa Fluor Annexin V/Dead Cell Apoptosis Kit (ThermoFisher Scientific). A2780 cells were seeded at a density of 2 × 10^5 cells/well in 6-well plates and incubated for 24 h. After that time, the medium was replaced by medium mixed with complexes 2–4 at their IC50. […] After a period of 48 h of incubation, cells were washed with PBS 1× and TE was used to detach the cells. The cells were resuspended in annexin-binding buffer 1× and incubated for 15 min at RT with Alexa Fluor 488 annexin V and Propidium Iodide. All samples were analyzed by an Attune Acoustic Focusing Flow Cytometer (ThermoFisher Scientific) and respective software.

Fibroblasts = assay: Cell migration (scratch) assay; type: cell-based, human; details: IC50 concentrations, 24 h, normalized against DMSO (100%)
Procedure: Fibroblasts were seeded in 24-well plates at a density of 4 × 10^5 cells/mL and grown in the same conditions as described previously until a confluent monolayer was obtained. […] Images of the Fibroblasts were captured right after the exposure (0 h) to the complexes and after 24 h of incubation at 37 °C and 5% (v/v) CO2 in a humidified atmosphere, using CytoSMART Lux2 Live Cell Imager (Axion biosystems, USA) and Ti–U Eclipse Inverted microscope (Nikon Instruments, Japan). Images were analyzed with the ImageJ MRO Wound Healing Tool or with the scratch assay measurement of the CytoSMART cloud portal for the Lux system.

A2780 cell line [2] = assay: Autophagy induction, flow cytometry; type: cell-based, human; details: for levels of autophagy: A2780, 48 h, complexes at IC50, DOX 0.4 μM, cisplatin 5 μM, rapamycin 500 nM for 15 h; for increase of autophagy compared to the control: A2780, IC50, 48 h, vs DMSO 0.1%
Procedure: The autophagy induced by complexes 2–4 was evaluated using the Autophagy Assay Kit (ab139484, Abcam, Cambridge, United Kingdom) according to the manufacturer’s instructions. For this, the A2780 cell line was seeded at a density of 2 × 10^5 cells/well in 6-well plates and incubated for 24 h at the conditions mentioned before. […] The positive control Rapamycin at 500 nM was incubated for only 15 h. After 48 h incubation, the cells were washed with PBS 1×, detached with TE, and treated with the Autophagy detection kit (Abcam, Cambridge, UK) according to the manufacturer’s instructions. The evaluation of autophagy induction was done through the Attune acoustic focusing flow cytometer (ThermoFisher Scientific) and respective software.

A2780 cells = assay: Cell cycle progression (PI flow cytometry, double thymidine block); type: cell-based, human; details: A2780, 24 h; complexes at IC50, DOX 0.4 μM, cisplatin 5 μM
Procedure: The interference of the copper complexes 2–4 in the cell cycle progression was evaluated in A2780 cells, seeded in 6-weel plates, with a density of 2 × 10^5 cells/well, and incubated for 8 h at the same conditions as described above. After that incubation time, the cells were synchronized in early S-phase with a 2 mM thymidine solution (Sigma, St. Louis, USA) for a 16 h period. Media with thymidine was replaced by fresh media and, after 8 h, another 2 mM thymidine solution was added to the wells (double thymidine block) and incubated for 16 h. […] Cells were incubated for 9, 18, or 24 h, and, at each hour, the cells were treated with TE and centrifuges at 650 × g for 5 min at 4 °C. The pellet was resuspended in PBS 1× and centrifuged at 3000 × g for 5 min at 4 °C. Later, the pellet was resuspended in 100 μL of PBS 1×, and 1 mL of a solution of 80% (v/v) ethanol was gently added to the cells. Cells were stored at 4 °C for at least 12 h and then centrifuged for 10 min at 7500 × g at 4 °C, treated with 250 μL of 50 μg/mL RNase A, and incubated for 30 min at 37 °C. After incubation, 100 μL of PI (25 μg/mL) was added to the cells as well as 650 μL of PBS 1×. The DNA content was evaluated on an Attune Acoustic Focusing Flow Cytometer (ThermoFisher Scientific) and results were analyzed by the respective software.

Calf Thymus DNA (CT-DNA) = assay: Calf thymus DNA binding assays (UV-vis, melting profile); details: UV spectroscopy, 25 μM complex
Procedure: Calf Thymus DNA (CT-DNA) binding assay was performed through the UV–vis spectra from 230 to 700 nm on the spectrophotometer Evolution 300 UV–vis (Thermo Fischer Scientific, Waltham, MA, USA). It was used a filtered buffer (5 mM Tris–HCl, 50 mM NaCl, pH 7.02) for the dilution of 0–50 μM of CT-DNA and 25 μM of the complexes 2–4. Control solutions of CT-DNA, CT-DNA + DMSO, and DMSO were also prepared. All solutions were incubated for 24 h at 37 °C and then analyzed. CT-DNA concentration in […] had been determined at 260 nm in a NanoDrop2000 spectrophotometer (Thermo Scientific), using an extinction coefficient of 6600 M^–1 cm^–1. The dilution effect because of the addition of the DNA solution was corrected and the affinity constants were calculated according to eq 2: [drawing 2] 2 where [DNA] is the concentration of CT-DNA (per nucleotide phosphate), εa = Abs/[complex], εf is the extinction coefficient for the free complex, and εb is the extinction coefficient for [Co(η^5-C5H5)(PPh3)(NN)][(CF3SO3)2] when fully bound to DNA. DNA concentration (expressed as the molarity of phosphate groups) was determined with a NanoDrop 2000 spectrophotometer assuming ε260 = 6600 M^–1 cm^–1. A melting profile of 10 μM CT-DNA and 10 μM CT-DNA with 10 μM of the complexes 2–4, was also performed. Evagreen dye was added to all samples after a 1h 30 min incubation of CT-DNA with the complexes at 37 °C. Melting curves were analyzed in a Corbet RotorGene 6000 (Biorad, Spain) by a first incubation step at 37 °C for 5 min followed by a ramp from 37 to 95 °C with 90 s hold in the first step and 5 s hold in the next steps with green acquisition.

SMILES	percentage of cells in initial apoptosis (A2780 cell line [1])	percentage of cells in late apoptosis (A2780 cell line [1])	percentage of cells in necrosis (A2780 cell line [1])	total apoptosis levels (A2780 cell line [1])	cellular remission (Fibroblasts)	levels of autophagy (A2780 cell line [2])	increase of autophagy compared to the control (A2780 cell line [2])	% of cells in the G2/M phase (A2780 cells)	effect on lowest-energy absorption band with increasing CT-DNA (Calf Thymus DNA (CT-DNA))
Nc1cc2cccnc2c2ncccc12.O=S(=O)([O-])C(F)(F)F.O=S(=O)([O-])C(F)(F)F.[Co+3].c1cc[cH-]c1.c1ccc(P(c2ccccc2)c2ccccc2)cc1 [Complex 4, [CoCp(PPh3)(NH2phen)][(CF3SO3)2]]	5.6%	0.9%	5.9%	6.5%	78.1%	95.5%	2.2 ×	28%	a hypochromic effect
Cc1ccnc(-c2cc(C)ccn2)c1.O=S(=O)([O-])C(F)(F)F.O=S(=O)([O-])C(F)(F)F.[Co+3].c1cc[cH-]c1.c1ccc(P(c2ccccc2)c2ccccc2)cc1 [Complex 2, [Co(η^5-C5H5)(PPh3)(Me2bipy)][(CF3SO3)2]]	5.0%	0.8%	7.8%	5.8%	80.2%	81.5%	1.9 ×	34.1%	a small hyperchromic effect
O=S(=O)([O-])C(F)(F)F.O=S(=O)([O-])C(F)(F)F.[Co+3].c1cc[cH-]c1.c1ccc(P(c2ccccc2)c2ccccc2)cc1.c1cnc2c(c1)ccc1cccnc12 [Complex 3, [Co(η^5-C5H5)(PPh3)(phen)][(CF3SO3)2]]	5.0%	0.9%	6.1%	5.9%	76.9%		1.5 ×	20.7%	a hypochromic effect
